Results: patent US12503473B2, “Triazolopyrimidine compounds and their use in treating cancer” (Dizal (Jiangsu) Pharmaceutical Co., Ltd., priority 2018, dated 2025)

What was measured:
MCT1 = biological target: T1, MCT1 (Homo sapiens, UniProt P53985); assay: Assay (c): FLIPR BCECF lactate influx in K562 cells; assay type: cell-based; conditions: mean of at least three repeats, read-out: MCT1 FLIPR pIC50 (K562) (converted)
T1 construct: a human erythroleukemia line predominantly expressing MCT1, a small amount of MCT2 and no MCT4; host or cells: K562
T1 sequence (P53985 1-500): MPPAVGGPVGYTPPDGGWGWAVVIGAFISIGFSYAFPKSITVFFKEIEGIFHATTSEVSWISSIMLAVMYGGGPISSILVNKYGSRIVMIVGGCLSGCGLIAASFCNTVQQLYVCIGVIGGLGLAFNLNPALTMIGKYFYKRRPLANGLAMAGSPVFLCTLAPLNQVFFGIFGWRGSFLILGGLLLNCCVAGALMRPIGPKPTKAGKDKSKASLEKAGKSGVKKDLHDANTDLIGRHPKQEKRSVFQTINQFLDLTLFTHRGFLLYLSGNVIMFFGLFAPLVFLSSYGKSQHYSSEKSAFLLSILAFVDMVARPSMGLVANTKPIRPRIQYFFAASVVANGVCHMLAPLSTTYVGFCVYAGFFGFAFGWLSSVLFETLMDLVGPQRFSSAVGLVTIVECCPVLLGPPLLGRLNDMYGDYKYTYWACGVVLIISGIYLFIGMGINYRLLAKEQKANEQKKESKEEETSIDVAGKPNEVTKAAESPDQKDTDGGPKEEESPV
Experimental: Cells were loaded with the pH sensitive dye BCECFAM(Invitrogen #B11150) before being washed to remove excess dye and seeded into the assay plates—directly onto the test compound—at a density of 15,000 cells/well (NCI—H358) or 30,000 cells/well (K562), in 30 μl HBSS with 1 mM [final] […] Assay plates were lidded and spun in a plate centrifuge at 170 g for 1 minute. Plates were then wrapped in foil and incubated in the dark for 1 hour at room temperature.
Following incubation with test compound, 10 μl of 25 mM Sodium-L-Lactate (Sigma #L7022) made up in HBSS with 1 mM [final] […] This addition was performed directly on the FLIPR Tetra platform (Molecular Devices) as part of a real-time kinetic read protocol. […] A percentage change from base-line was calculated for each test well and values normalised to control wells—treated with either DMSO (maximum assay signal) or chemistry related to that described in this patent (minimum assay signal)—before fitting concentration response curves to determine an IC50 value.

[1] = tested on: NCI H358 subcutaneous xenograft; assay: Human lung cancer xenograft model, VEGFR TKI combination; assay type: in vivo, female nude mice; conditions: combination of AZD2171 (3 mg/kg QD) with Example 62 (100 mg/kg BID), oral, 17 days; p<0.001 vs control, p=0.013 vs AZD2171 alone
Experimental: The in vivo efficacy of MCT4 inhibitors has been tested in human xenograft models. The NSCLC cell line NCI H358 can be grown as a subcutaneous xenograft in female nude mice and tumour volume calculated from bilateral caliper measurements. For efficacy studies three million NCI H358 cells were inoculated sub-cutaneously onto the left flank of the animal in a volume of 0.1 ml serum free media (RPMI) and matrigel. Animals were assigned into treatment groups 14 days after cell implantation and received either AZD2171 (3 mg/kg QD) (Wedge et al., (2005) Cancer Res. 65:4389-4400), a compound of Formula (I) (100 mg/kg BID) or the combination of both by oral gavage. A vehicle control of 0.5% hydroxy propyl methyl cellulose/0.1% Tween 80 was dosed twice daily given orally. Dosing was continued for 17 days and tumour volume, body weight and tumour condition were recorded twice weekly for the duration of the study.

[2] = tested on: MC38 MCT1 KO murine colorectal cell line; assay: Mouse syngeneic model, αCTLA4 antibody combination (first study, FIG. 4); assay type: in vivo, female C57·B16 mice; conditions: Day 15
Description: The in vivo efficacy of MCT4 inhibitors has been tested in murine syngeneic models. To test the selective impact of MCT4 inhibitors of Formula (I), MCT1 was knocked-out (KO) of the MC38 syngeneic cell line model using CRISPR precise genome editing. The MC38 MCT1 KO murine colorectal cell line can be grown sub-cutaneously in female C57·B16 mice and tumour volume calculated from bilateral caliper measurements. For efficacy studies, ten million cells were inoculated subcutaneously onto the left flank of the animal in a volume of 0.1 ml serum free DMEM media. Animals were randomised by bodyweight at the time of cell implantation and treatment started the following day. In the first of these studies shown in FIG. 4, monotherapy treatment arms received either a compound of Formula (I) (100 mg/kg BID) by oral gavage or αCTLA4 antibody (anti-CTLA-4 9D9 mlgG1 antibody, described in WO200712373) (10 mg/kg twice weekly) intraperitoneally. Combination groups consisted of a compound of Formula (I) (100 or 10 mg/kg PO BID) with αCTLA4 antibody (10 mg/kg IP twice weekly). In the second of these studies shown in FIG. 5, monotherapy treatment arms received either a compound of Formula (I) (30 mg/kg PO BID) with αPD-1 antibody (from Bio X Cell, Catalogue #BE0146, Lot 665417s1, 6.78 mg/mL) (10 mg/kg IP twice weekly). In both studies dosing was continued for up to 6 weeks and tumour volume, body weight and tumour condition were recorded three times weekly. Vehicle was 0.5% hydroxy propyl methyl cellulose/0.1% Tween 80 given twice daily by oral gavage with PBS/a given twice weekly intraperitoneally in both studies.
Individual tumour growth profiles are shown with animals taken off study using time to event criteria based on a maximum tumour volume of 1.5 cm^3, tumour condition or animal welfare limits. Due to animals coming off study during the later stages of the experiment, GeoMean percentage inhibition values were calculated on Day 15. […] Monotherapy αCTLA4 (10 mg/kg) was ineffective with 6.1%^NS.

[3] = tested on: MC38 MCT1 KO murine colorectal cell line; assay: Mouse syngeneic model, αPD-1 antibody combination (second study, FIG. 5); assay type: in vivo, female C57·B16 mice; conditions: Day 13
Description: The in vivo efficacy of MCT4 inhibitors has been tested in murine syngeneic models. To test the selective impact of MCT4 inhibitors of Formula (I), MCT1 was knocked-out (KO) of the MC38 syngeneic cell line model using CRISPR precise genome editing. The MC38 MCT1 KO murine colorectal cell line can be grown sub-cutaneously in female C57·B16 mice and tumour volume calculated from bilateral caliper measurements. For efficacy studies, ten million cells were inoculated subcutaneously onto the left flank of the animal in a volume of 0.1 ml serum free DMEM media. Animals were randomised by bodyweight at the time of cell implantation and treatment started the following day. […] In both studies dosing was continued for up to 6 weeks and tumour volume, body weight and tumour condition were recorded three times weekly. […]
Again, individual tumour growth profiles are shown with animals taken off study using time to event criteria based on a maximum tumour volume of 1.5 cm^3, tumour condition or animal welfare limits. Due to animals reaching the time to event endpoint at different times during the later stages of the experiment GeoMean percentage inhibition values were calculated on Day 13.

Cc1nc2nc(C)c(O[C@@H]3CCN(c4ccc(-c5ccc(CN6CCOCC6)nn5)cc4)C3)c(C)n2n1 [Example 62, (R)-4-((6-(4-(3-((2,5,7-trimethyl-[1,2,4]triazolo[1,5-a]pyrimidin-6-yl)oxy)pyrrolidin-1-yl)phenyl)pyridazin-3-yl)methyl)morpholine]
IC50 (MCT1): > 25.1 µM | tumour regression [1]: 72% | GeoMean percentage growth inhibition vs vehicle control ([2]; Example 62 10 mg/kg PO BID with αCTLA4 antibody 10 mg/kg IP twice weekly, p≤0.01): 67.4% | GeoMean percentage growth inhibition vs vehicle control ([2]; Example 62 100 mg/kg PO BID with αCTLA4 antibody 10 mg/kg IP twice weekly, p≤0.001, p=0.0311 vs Example 62 alone): 82.2% | GeoMean percentage growth inhibition vs vehicle control ([2]; Example 62 monotherapy 100 mg/kg BID PO, p≤0.05): 60.0% | GeoMean percentage growth inhibition vs vehicle control ([3]; Example 62 30 mg/kg PO BID with αPD-1 antibody 10 mg/kg IP twice weekly, p≤0.001): 82.3% | GeoMean percentage growth inhibition vs vehicle control ([3]; Example 62 monotherapy 30 mg/kg PO BID, NS): 30.1%
